# Test results reported in BindingDB's records for doi:10.1016/j.bioorg.2015.10.006 (University of Karachi, 2015).
# Biological target: T1, Thymidine phosphorylase (Escherichia coli (strain SMS-3-5 / SECEC), UniProt B1LEI7)
# T1 sequence (B1LEI7 whole entry): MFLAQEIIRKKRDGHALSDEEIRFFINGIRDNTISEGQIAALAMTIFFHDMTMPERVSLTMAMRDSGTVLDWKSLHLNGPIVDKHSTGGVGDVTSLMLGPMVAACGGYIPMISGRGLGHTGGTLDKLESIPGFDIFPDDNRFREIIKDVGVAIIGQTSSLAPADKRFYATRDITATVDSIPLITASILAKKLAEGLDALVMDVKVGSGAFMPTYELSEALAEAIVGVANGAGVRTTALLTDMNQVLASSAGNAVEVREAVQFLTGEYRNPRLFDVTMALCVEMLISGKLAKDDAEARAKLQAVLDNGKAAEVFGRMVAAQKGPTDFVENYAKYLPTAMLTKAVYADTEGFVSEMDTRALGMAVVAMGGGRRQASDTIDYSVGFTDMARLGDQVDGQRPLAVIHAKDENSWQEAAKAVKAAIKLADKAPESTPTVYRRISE
# Test: Thymidine Phosphorylase Inhibition Assay
# Conditions: pH 7
# Procedure: TP inhibition assay was performed spectrophotometrically. The method of Bera et al. was followed with slight modifications. Reaction mixture of 200 µL, contained 20 µL of enzyme (0.058 unit/well), 150 µL of potassium phosphate buffer (pH 7.0, 50 mM), and 10 µL of test compound (0.5 mM). The reaction mixture was then incubated for 10 min at 30 °C. […] Every experiment was run in triplicate. 7-Deazaxanthine was used as positive control.
row,SMILES,IC50 [µM]
1,O=c1[nH]c(-c2ccc(O)cc2)nc2ccccc12,234
2,CCOc1cc(-c2nc3ccccc3c(=O)[nH]2)ccc1O,256
3,O=c1[nH]c(-c2ccc(O)c(O)c2)nc2ccccc12,42.9
4,O=c1[nH]c(-c2cc(O)ccc2O)nc2ccccc12,59.5

# More lines, in order of falling IC50, values ahead:
row,IC50 [µM],SMILES
1,295,O=c1[nH]c(-c2cccc(O)c2)nc2ccccc12
2,169,COc1ccc(-c2nc3ccccc3c(=O)[nH]2)cc1O
